Reference: patent publication US20220362239A1, “PHARMACEUTICAL COMPOSITION AND METHOD FOR TREATMENT OF ACUTE RESPIRATORY DISTRESS SYNDROME (ARDS) IN CORONAVIRUS DISEASE (COVID-19)” (PHARMAZZ, INC., priority 2021, published 2022)

Experiments:
[1] = test system: patients with hypovolemic shock; test: clinical phase II study in hypovolemic shock (NCT04056065); type: in vivo, human
healthy human subjects = test: Phase I safety study (NCT02408731); type: in vivo
Description: Centhaquine has been evaluated for its safety, sensitivity and toxicity in various species for single and multiple doses and acute as well as chronic exposure (33).
Centhaquine has been evaluated for its safety, sensitivity and toxicity in various species for single and multiple doses and acute as well as chronic exposure (33). […] Safety and efficacy of centhaquine is established (Phase I, phase II and phase III clinical studies)

COVID-19 patients [2] = test: centhaquine (Lyfaquin) in COVID-19 patients; type: in vivo, human; conditions: for slope of SpO2/FiO2 versus age of patient: basal slope −1.062
Experimental: The effect of centhaquine (Lyfaquin®) was determined COVID-19 patients. A significant improvement in oxygen saturation (SpO2) of COVID-19 patients by intravenous administration of centhaquine in the dose of 0.01 mg/kg was observed (FIG. 2). An improvement of SpO2 improved by 12.40 units within 2 hours of administration of centhaquine and further treatment with centhaquine led to an improvement of SpO2 by about 20 units.
We also determined the effect of age on the improvement in ratio of SpO2 and FiO2 (SpO2/FiO2) after administration of centhaquine (FIG. 3). […] Centhaquine (Lyfaquin®) improved SpO2/FiO2 in COVID-19 patients.
WHO Ordinal Scale was used to determine whether centhaquine (Lyfaquin®) improved the outcome of patients with COVID-19 (FIG. 5).

[3] = test system: models of hypovolemic shock; conditions: in vivo; cited from earlier work
swine model of shock = conditions: in vivo; cited from earlier work
[4] = test system: patients with hypovolemic shock; test: phase III randomized, blinded, multicenter study in hypovolemic shock (NCT04045327); type: in vivo, human
Description: ARDS in Shock Patients (N=105): Acute Respiratory Distress Syndrome (ARDS) was compared between day 1 (before resuscitation) and day 3 of resuscitation. In control patients receiving standard treatment the difference between means was 0.04839±0.05696 (P=0.4023). On the other hand, in centhaquine treated group the ARDS difference between means was 0.1065±0.04464 (P=0.0202).
MODS in Shock Patients (N=105): Multiple Organ Dysfunction Score (MODS) was compared between day 3 and day 7 of resuscitation. There was no improvement in MODS in the control group and the difference between means was 0.00±0.2697 (P>0.999), whereas in centhaquine group the difference between means was 0.9091±0.1964 (P=0.0001).

[5] = test system: patients with hypovolemic shock; test: combined / metanalysis of phase II and III trials in hypovolemic shock
Description: In a 105-patient randomized, blinded, multicenter study (CTRI/2019/01/017196; NCT04045327) a total of 34 (22 male and 12 female) patients in control and 68 (41 male and 27 female) patients in centhaquine groups completed the study. […] In total 180 human subjects have been studied (combined phase I, II and III), out of which 155 were patients with hypovolemic shock.

[6] = test system: swine model of in hospital cardiac arrest; conditions: in vivo; cited from earlier work
SARS-CoV-2 = conditions: cited from earlier work
[7] = test system: SARS-CoV-2 viral load in nasopharyngeal swabs; conditions: 600 mg daily; day 6 post inclusion compared to controls; cited from earlier work
COVID-19 patients [8] = conditions: 13 patients; inhalation 10 mg; cited from earlier work

Q: Which mortality ([1]; human, in vivo) does the source give for `Cc1cccc(N2CCN(CCc3ccc4ccccc4n3)CC2)c1` [centhaquine] here?
A: reduced mortality

Q: And the use of vasopressors ([1]; human, in vivo)?
A: reduction in use of vasopressors

Q: And the base-deficit ([1]; p<0.0001)?
A: highly significant efficacy

Q: And the blood pressure ([1]; p<0.0001)?
A: highly significant efficacy

Q: What about the lactate levels ([1]; p=0.0012) of the same molecule?
A: highly significant efficacy

Q: What about the “adverse events related to centhaquine” value ([1]; phase II) of the same molecule?
A: NO adverse events

Q: And the safety and tolerability (healthy human subjects)?
A: safe and well tolerated

Q: And the “slope of SpO2/FiO2 versus age of patient” value (COVID-19 patients [2]; at 2 hours of treatment)?
A: −0.5905

Q: And the “slope of SpO2/FiO2 versus age of patient” value (COVID-19 patients [2]; at 4 hours of treatment)?
A: −0.2718

Q: What about the “improvement in WHO Ordinal Scale, mean difference” value (COVID-19 patients [2]; at 72 hours of resuscitation, N=10, p=0.0169) of the same molecule?
A: 0.7444

Q: And the “patients who did not need oxygen therapy” value (COVID-19 patients [2]; at 72 hours of treatment)?
A: Four out of 10

Q: What about the “improvement of oxygen saturation (SpO2)” value (COVID-19 patients [2]; further treatment with centhaquine) of the same molecule?
A: about 20 units

Q: And the “improvement of SpO2/FiO2” value (COVID-19 patients [2]; in 4 hours)?
A: 41.42 units

Q: What about the “improvement of SpO2/FiO2” value (COVID-19 patients [2]; within 2 hours) of the same molecule?
A: 34.48 units

Q: And the “improvement of oxygen saturation (SpO2)” value (COVID-19 patients [2]; within 2 hours of intravenous centhaquine 0.01 mg/kg)?
A: 12.40 units

Q: What about the survival [3] of the same molecule?
A: improves survival

Q: What about the “Horowitz index (PaO2/FiO2 ratio)” value (swine model of shock) of the same molecule?
A: improved

Q: What about the pulmonary edema (swine model of shock) of the same molecule?
A: significantly reduced

Q: What about the “ARDS difference between means” value ([4]; day 1 (before resuscitation) vs day 3 of resuscitation, P=0.0202) of the same molecule?
A: 0.1065±0.04464

Q: And the blood lactate levels ([4]; day 3 of resuscitation, compared to control, P=0.046)?
A: significantly lower

Q: What about the “MODS difference between means” value ([4]; day 3 vs day 7 of resuscitation, P=0.0001) of the same molecule?
A: 0.9091±0.1964

Q: What about the “adverse events related to centhaquine” value ([4]; phase III) of the same molecule?
A: NO adverse events

Q: And the 28-day all-cause mortality ([4]; versus 11.76% with standard treatment, P=0.0742)?
A: 2.94%

Q: What about the mortality ([5]; 155 patients with hypovolemic shock, versus 9.68% with standard treatment) of the same molecule?
A: 2.15%

Q: And the mortality odds ratio ([5]; 155 patients, 95% CI 1.162-24.18, P=0.0190)?
A: 4.875

Q: And the ARDS scores ([5]; N=155)?
A: significantly improved

Q: What about the MODS score ([5]; N=155) of the same molecule?
A: significantly improved

Q: What about the mortality ([5]; metanalysis of phase II and III trials, versus 10.71%) of the same molecule?
A: 2.20%

Q: And the mortality odds ratio ([5]; metanalysis of phase II and III, 95% CI 1.27-26.50, p=0.0271)?
A: 5.340

Q: And the “efficacy as resuscitative agent” value [6]?
A: highly effective

Q: Which “inhibition of SARS-CoV-2 in vitro” value (SARS-CoV-2) does the source give for `CCN(CC)CCCC(C)Nc1ccnc2cc(Cl)ccc12` (stereo not shown) [chloroquine] here?
A: effectively inhibit

Q: Which viral carriage [7] does the source give for `CCN(CCO)CCCC(C)Nc1ccnc2cc(Cl)ccc12` (stereo not shown) [hydroxychloroquine] here?
A: significant reduction

B1: plasminogen: plasminogen supplementation given by inhalation, 10 mg dissolved in 2 ml sterile water (protein, UniProt P00747 20-810, looked up)
Plasminogen: EPLDDYVNTQGASLFSVTKKQLGAGSIEECAAKCEEDEEFTCRAFQYHSKEQQCVIMAENRKSSIIIRMRDVVLFEKKVYLSECKTGNGKNYRGTMSKTKNGITCQKWSSTSPHRPRFSPATHPSEGLEENYCRNPDNDPQGPWCYTTDPEKRYDYCDILECEEECMHCSGENYDGKISKTMSGLECQAWDSQSPHAHGYIPSKFPNKNLKKNYCRNPDRELRPWCFTTDPNKRWELCDIPRCTTPPPSSGPTYQCLKGTGENYRGNVAVTVSGHTCQHWSAQTPHTHNRTPENFPCKNLDENYCRNPDGKRAPWCHTTNSQVRWEYCKIPSCDSSPVSTEQLAPTAPPELTPVVQDCYHGDGQSYRGTSSTTTTGKKCQSWSSMTPHRHQKTPENYPNAGLTMNYCRNPDADKGPWCFTTDPSVRWEYCNLKKCSGTEASVVAPPPVVLLPDVETPSEEDCMFGNGKGYRGKRATTVTGTPCQDWAAQEPHRHSIFTPETNPRAGLEKNYCRNPDGDVGGPWCYTTNPRKLYDYCDVPQCAAPSFDCGKPQVEPKKCPGRVVGGCVAHPHSWPWQVSLRTRFGMHFCGGTLISPEWVLTAAHCLEKSPRPSSYKVILGAHQEVNLEPHVQEIEVSRLFLEPTRKDIALLKLSSPAVITDKVIPACLPSPNYVVADRTECFITGWGETQGTFGAGLLKEAQLPVIENKVCNRYEFLNGRVQSTELCAGHLAGGTDSCQGDSGGPLVCFEKDKYILQGVTSWGLGCARPNKPGVYVRVSRFVTWIEGVMRNN
Q: For B1, which “patients with improved oxygen saturation” value (COVID-19 patients [8]) is on record?
A: 6 patients

Q: What about the “patients with improvement in density of 'ground glass' opacity” value (COVID-19 patients [8]) of the same molecule?
A: 5 patients
